Measurements published in ChEMBL document CHEMBL5724696, “Autophagy assay results for EUbOPEN Chemogenomics Library” (2024).

Assays:
Assay type in all cases: functional, Homo sapiens
TERT-RPE1 = test: (§1) Here: values are normalized to the negative (DMSO; defined as 0% autophagy induction) and positive (250nM Torin1; mTOR inhibitor; defined as maximal inducer of autophagy = 100%) control compounds and represented as % of autophagy induction. […] The impact of autophagy induction on cells is complex and depends on the affected target. As such, the magnitude of a phenotype may not be equally mirrored in the %-value of autophagy induction and vice versa. The dynamics of the induction may indicate the mode of activation: e.g. activation via phosphorylation or a signaling cascade may occur fast, while activation via transcription factors may take considerably longer. […] Of note, treatment concentrations may be sub-optimal for specific compounds, leading to false negative annotations.; conditions: Culturing Media DMEM/F12 (1:1), 1 % Penicillin/Streptomycin, 10% Fetal bovin serum Add-On: No, Screening Media Control DMEM/F12 (1:1), Screening Media Samples DMEM/F12 (1:1)
U2OS [1] = test: as §1; conditions: Culturing Media DMEM, 1 % Penicillin/Streptomycin, 10% Fetal bovin serum Add-On: No, Screening Media Control DMEM, Screening Media Samples DMEM
U2OS [2] = test: as §1; conditions: Culturing Media DMEM, 1 % Penicillin/Streptomycin, 10% Fetal bovin serum Add-On: No, Screening Media Control DMEM, Screening Media Samples DMEM; remark: listed apart in the source
[3] = Compound Concentration 0.5 uM, Timepoint 12 hours
[4] = Compound Concentration 0.5 uM, Timepoint 24 hours
[5] = Compound Concentration 0.5 uM, Timepoint 36 hours
[6] = Compound Concentration 0.5 uM, Timepoint 60 hours
[7] = Compound Concentration 2 uM, Timepoint 12 hours
[8] = Compound Concentration 2 uM, Timepoint 24 hours
[9] = Compound Concentration 2 uM, Timepoint 36 hours
[10] = Compound Concentration 2 uM, Timepoint 60 hours
[11] = Compound Concentration 10 uM, Timepoint 12 hours
[12] = Compound Concentration 10 uM, Timepoint 24 hours
[13] = Compound Concentration 10 uM, Timepoint 36 hours
[14] = Compound Concentration 10 uM, Timepoint 60 hours

Row | SMILES | autophagy induction (TERT-RPE1; [3]) | autophagy induction (TERT-RPE1; [4]) | autophagy induction (TERT-RPE1; [5]) | autophagy induction (TERT-RPE1; [6]) | autophagy induction (TERT-RPE1; [7]) | autophagy induction (TERT-RPE1; [8]) | autophagy induction (TERT-RPE1; [9]) | autophagy induction (TERT-RPE1; [10]) | autophagy induction (TERT-RPE1; [11]) | autophagy induction (TERT-RPE1; [12]) | autophagy induction (TERT-RPE1; [13]) | autophagy induction (TERT-RPE1; [14]) | autophagy induction (U2OS [1]; [3]) | autophagy induction (U2OS [1]; [4]) | autophagy induction (U2OS [1]; [5]) | autophagy induction (U2OS [1]; [6]) | autophagy induction (U2OS [1]; [7]) | autophagy induction (U2OS [1]; [8]) | autophagy induction (U2OS [1]; [9]) | autophagy induction (U2OS [1]; [10]) | other results
1 | N#Cc1c[nH]c2c(C(=O)N3CCN(CCc4ccc(F)cc4)CC3)cccc12 [PRUVANSERIN] | -0.9197% | -7.874% | -10.0141% | -14.8375% | -6.1985% | -7.924% | -9.7251% | -15.807% | -0.3174% | -4.163% | -3.571% | -3.5258% | -2.928% | -3.235% | -1.344% | -1.7078% | -0.5957% | -2.183% | -3.588% | -2.524% | autophagy induction (U2OS [1]; [11]): 4.878%; autophagy induction (U2OS [1]; [12]): -0.06233%; autophagy induction (U2OS [1]; [13]): -0.9102%; autophagy induction (U2OS [1]; [14]): -2.945%; autophagy induction (U2OS [2]; [3]): -6.178%; autophagy induction (U2OS [2]; [4]): -8.725%; autophagy induction (U2OS [2]; [5]): -11.774%; autophagy induction (U2OS [2]; [6]): -11.1897%; autophagy induction (U2OS [2]; [7]): -0.7991%; autophagy induction (U2OS [2]; [8]): -1.585%; autophagy induction (U2OS [2]; [9]): -5.754%; autophagy induction (U2OS [2]; [10]): -9.463%; autophagy induction (U2OS [2]; [11]): -2.951%; autophagy induction (U2OS [2]; [12]): 1.579%; autophagy induction (U2OS [2]; [13]): -6.9473%; autophagy induction (U2OS [2]; [14]): -6.12%
2 | COc1ccc(C2(O)OC(=O)C(c3ccc4c(c3)OCO4)=C2Cc2cc(OC)c(OC)c(OC)c2)cc1 (stereo not drawn) [PD-156707] | -7.977% | -6.312% | -1.3569% | 6.352% | -3.2518% | -7.638% | -7.617% | -7.701% | -8.81% | -9.172% | -8.276% | -11.0822% | -0.3009% | 0.4369% | -0.07956% | -0.9865% | -2.496% | -1.926% | -0.6682% | -1.242% | autophagy induction (U2OS [1]; [11]): -0.3825%; autophagy induction (U2OS [1]; [12]): -1.441%; autophagy induction (U2OS [1]; [13]): -0.8744%; autophagy induction (U2OS [1]; [14]): -0.2319%; autophagy induction (U2OS [2]; [3]): 2.427%; autophagy induction (U2OS [2]; [4]): 7.779%; autophagy induction (U2OS [2]; [5]): 2.534%; autophagy induction (U2OS [2]; [6]): -0.8382%; autophagy induction (U2OS [2]; [7]): -5.016%; autophagy induction (U2OS [2]; [8]): 3.24%; autophagy induction (U2OS [2]; [9]): -2.65%; autophagy induction (U2OS [2]; [10]): -6.1634%; autophagy induction (U2OS [2]; [11]): -12.4956%; autophagy induction (U2OS [2]; [12]): -10.1664%; autophagy induction (U2OS [2]; [13]): -12.3712%; autophagy induction (U2OS [2]; [14]): -18.4825%
3 | Cc1csc(NC(=O)c2cc(F)cc(Oc3cncnc3)c2)n1 | -6.573% | -11.4508% | -15.1452% | -20.0235% | -3.733% | -9.437% | -10.535% | -13.1148% | -2.429% | -5.833% | -5.079% | -4.061% | -6.672% | -2.592% | -1.939% | -1.765% | -5.1627% | -3.72% | -2.553% | -1.843% | autophagy induction (U2OS [1]; [11]): -2.289%; autophagy induction (U2OS [1]; [12]): -0.7242%; autophagy induction (U2OS [1]; [13]): -0.5379%; autophagy induction (U2OS [1]; [14]): -1.609%; autophagy induction (U2OS [2]; [3]): -16.3524%; autophagy induction (U2OS [2]; [4]): -14.7733%; autophagy induction (U2OS [2]; [5]): -11.9866%; autophagy induction (U2OS [2]; [6]): -8.75%; autophagy induction (U2OS [2]; [7]): -9.821%; autophagy induction (U2OS [2]; [8]): -11.197%; autophagy induction (U2OS [2]; [9]): -11.4826%; autophagy induction (U2OS [2]; [10]): -11.3338%; autophagy induction (U2OS [2]; [11]): -1.626%; autophagy induction (U2OS [2]; [12]): -3.326%; autophagy induction (U2OS [2]; [13]): -2.706%; autophagy induction (U2OS [2]; [14]): -7.422%
